The source of these data is ChEMBL document CHEMBL1201862, “PubChem BioAssay data set” (2004).

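Following 48 hours of exposure in 96-well plates, responses at five concentrations were used to interpolate endpoints linearly. At the GI50, growth is halved.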 Active and inactive are the calls of the source. No stated cut-off is given here; in the data, active = GI50 up to about 1.1 µM and inactive = higher.

Holding throughout (experiment): growth of human tumour cells (NCI), 48 h
Assay [1] concerns SNB-75.
Assay [2] has as its system 786-0.
Assay [3] relates to CAKI-1.
Assay [4] concerns HCC 2998.
The subject of assay [5] is A549.
Assay [6] relates to MCF7.
The test system of assay [7] is HOP-92.
Assay [8] deals with OVCAR-4.
In assay [9] the test system is KM12.
For assay [10], the system named is SK-MEL-5.
For assay [11], the system named is NCI-H522.
Assay [12] has as its system IGROV-1.
Assay [13] relates to MDA-N.
Assay [14] relates to HCT-116.
Assay [15] concerns LOX IMVI.
The test system of assay [16] is TK-10.
Assay [17] relates to SR.
Assay [18] deals with NCI-H226.
The subject of assay [19] is SN12C.

As to `CC1=C(O)C(=O)C=C2C1=CC=C1[C@@]2(C)CC[C@@]2(C)[C@@H]3C[C@](C)(C(=O)O)CC[C@]3(C)CC[C@]12C` [CELASTROL], the GI50 in assay [1] is 0.132 µM (active); in [2], 0.0147 µM (active); in assay [3], 0.0135 µM (active); in assay [4] it was 0.0306 µM (active); in assay [5] it was 0.422 µM (active); in assay [6], 0.0818 µM (active). For the same compound, the GI50 in assay [7] is 0.0101 µM (active); in assay [8] it was 0.0188 µM (active); in assay [9] it was 0.169 µM (active); in assay [10], 0.07 µM (active); in assay [11] it was 0.0143 µM (active); in assay [12], 0.0178 µM (active). Besides, the GI50 is 0.0234 µM (active) in assay [13]; 0.0221 µM (active) in assay [14]; 0.0182 µM (active) in assay [15]; < 0.0105 µM (active) in assay [16]; < 0.01 µM (active) in assay [17]; 0.16 µM (active) in assay [18]. In [19], the GI50 is 0.0376 µM (active).

Turning to `Cc1nc2cccc(F)c2c(=O)n1-c1nnc(C(F)(F)F)s1`, the GI50 in assay [1], in [2], in assay [3], in [4], in [5] and in assay [6] was > 10 µM (inactive) in each case. Further, the GI50 in assay [7], in assay [8], in [9], in assay [10], in [11] and in [12] was > 10 µM (inactive) each time. Besides, the GI50 in assay [13], in assay [14], in assay [15], in [16], in assay [17] and in [18] was > 10 µM (inactive) each time. In [19], the GI50 is > 10 µM (inactive).

As for `Cc1ccc(S(=O)(=O)N/N=C2/CC[C@H](C(C)(C)C)C[C@@H]2C)cc1`, the GI50 in assay [1] is 17.8 µM (inactive); in [2], 17.1 µM (inactive); in assay [3], 13.5 µM (inactive); in assay [4], 18.9 µM (inactive); in assay [5] it was 16.4 µM (inactive); in [6], 18.5 µM (inactive). Also, the GI50 is 16.7 µM (inactive) in assay [7]; 0.574 µM (active) in assay [8]; 22.6 µM (inactive) in assay [9]; 13.8 µM (inactive) in assay [10]; > 10 µM (inactive) in [11]; 14.9 µM (inactive) in [12]. Also, the GI50 was 17.1 µM (inactive) in assay [13]; 14.8 µM (inactive) in assay [14]; 14.7 µM (inactive) in assay [15]; 16.4 µM (inactive) in [16]; 31.8 µM (inactive) in assay [17]; 13.8 µM (inactive) in assay [18]. In addition, the GI50 in assay [19] was 16.3 µM (inactive).

As for `COc1cc(/C=C/C(=N\NC(=S)NN)c2sc(NNC(C)=O)nc2C)ccc1O`, the GI50 in [1], in assay [2], in [3], in [4], in assay [5] and in assay [6] was > 100 µM (inactive) throughout. Moreover, the GI50 is > 100 µM (inactive) in assay [7]; > 100 µM (inactive) in assay [8]; 66.2 µM (inactive) in assay [9]; > 100 µM (inactive) in assay [10]; > 100 µM (inactive) in assay [11]; > 100 µM (inactive) in assay [12]. For the same compound, the GI50 in assay [13], in [14], in assay [15], in assay [16], in [17] and in assay [18] was > 100 µM (inactive) throughout. Moreover, in [19], the GI50 is > 100 µM (inactive).
